System: MDSC and macrophage subsets in the BM
Assay: Flow cytometry of MDSC and macrophage subsets in the BM of KC-HPC mice
Format: in vivo, mouse
Conditions: API 25 mg/kg IP
Text: All female C57BL/6 mice (6-8 weeks of age) described in this study were purchased from Envigo (Indianapolis, IN, USA) and were acclimatize for one week in a pathogen-free animal facility (University of South Florida (USF) vivarium) before injections with PC cells. To generate heterotopic pancreatic cancer (HPC) models, mice were subcutaneously injected with 1.5×10^5 murine Panc02 (HPC mice) or 5×10^6 murine UN-KC-6141 cells (KC-HPC mice), in sterile 1× phosphate buffer saline (PBS), in the lower ventral abdomen, while control (CTRL) mice received sterile 1×PBS. Once tumors where palpable, API (25 mg/kg, 100 μL volume) treatments (HPC-API and KC-HPC-API), via intraperitoneal (IP) injections, were started while CTRL, HPC and KC-HPC mice received sterile PBS (vehicle) three times per week until the end of the study^12, 55. The HPC models were euthanized 21-28 days post-injection, while the KC-HPC models were euthanized 16-17 days post-injection. The femur and tibia were cut at the pelvic-hip joint and muscle was removed. The femurs and tibias were cut at the ends and flushed with a 30-gauge needle and 10 cc syringe filled with completed RPMI media until bone was white onto a petri dish. Pelleted bone marrow (BM) cells were treated with Red Blood Cell (RBC) lysis buffer (eBioscience, Waltham, MA, USA), according to the manufacturer's instructions, and then filtered through a […] nylon mesh cell strainer in 1×PBS. All pancreatic tumors were manually cut into ˜1-2 mm^3 fragments with a sterile razor blade and then enzymatically digested with Collagenase, type IV (Sigma-Aldrich), DNase, type IV (Sigma-Aldrich) and Hyaluronidase, Type V (Sigma-Aldrich) in Hank's Balanced Salt Solution for 1 h, spun down and washed as described in previous studies^61. Digested pancreatic tumor samples were treated with RBC lysis buffer and then filtered through a […] nylon mesh cell strainer in 1×PBS. Bone marrow and digested pancreatic tumor single cell suspensions were counted with a hemocytometer and then resuspended in 3% FBS/PBS. BM and digested pancreatic tumor cells (1×10^6) were Fc Blocked (anti-mouse CD16/CD32) and then surface stained for 30 min on ice protected from light with fluorescent anti-mouse antibodies including, CD11b-APC, Ly6C-PE/Cy7, Ly6G-PerCP, F4/80-BV650, MHC—II-BV605, CD206-FITC and CD40-PE/Cy5 along with isotype control antibodies (Biolegend, San Diego, CA, USA) to detect MDSC and macrophage subsets. Digested pancreatic tumor cells (1×10^6) were also Fc Blocked and then surface stained with fluorescent anti-mouse antibodies including CD3-FITC, CD8-PercP/Cy5.5, CD4-APC/Cy7, and CD40L-APC along with isotype control antibodies (Biolegend) to detect CD8^+ T cells. Subsequently, all samples were fixed with 2% paraformaldehyde for 15 min on ice protected from light. Acquisition of samples was performed using a flow cytometer BD LSRII (BD Biosciences Immunocytometry Systems). Data analysis was performed using FlowJo v10.8 software (TreeStar Inc.).

## O=c1cc(-c2ccc(O)cc2)oc2cc(O)cc(O)c12 [API, 40,5,7-Trihydroxyflavone, 5,7-Dihydroxy-2-(4-hydroxyphenyl)-4-benzopyrone]
Vs KC-HPC mice
  G-MDSC absolute cell numbers in BM: significantly lowered
  M1 macrophage percentages in BM: significantly increased
  M1 macrophages absolute cell numbers in BM: no significant changes
  M2 macrophage percentages in BM: decreased
  M2 macrophages absolute cell numbers in BM: no significant changes
  M-MDSC absolute cell numbers in BM: significantly lowered
Vs vehicle treated KC-HPC mice
  proportions of G-MDSCs in BM: significantly reduced
  proportions of M-MDSCs in BM: without any significant change

From patent US20240415804A1, “METHOD OF TREATING PANCREATIC CANCER” (University of South Florida, priority 2022, published 2024)
